Usually EC50 stands for the midpoint of the concentration-response curve. Low values mean a more potent agent, high ones a less potent agent. By IC50 is commonly meant the concentration needed to halve the response being measured. Low readings indicate inhibition by little substance, high ones a need for much substance.

Experiment [1] is described as follows: Oxygen radical antioxidant capacity (ORAC) assay. The settings on record: Trolox equivalents; AAPH, fluorescein. The procedure: The ORAC assay was evaluated as previously described by Cao et al. with some modifications. 50 μL of samples or Trolox with different concentrations and the fluorescein solution was added to a 96-well microplate, which was incubated at 37°C for 10 min. […] The ORAC values were calculated by the regression equation between the Trolox concentration and the net area under the curve (expressed as μmol Trolox eq/μmol sample).

A further experiment has as its system HepG2 cells. In words: Cellular antioxidant activity (CAA) assay. The format is cell-based. Conditions: DCFH-DA 25 μM, ABAP 600 μM. On the procedure: The CAA assay was tested as described previously. 6 × 10^4 cells/well of HepG2 cells were seeded at a 96-well microplate with 100 μL of growth medium/well. […] Then, the cells were washed with PBS and treated with 100 μL of 600 μM ABAP (dissolved in HBSS), and the 96-well microplate was immediately placed into an Infinite SpectraMax i3x Multi-Mode Detection plate-reader at 37°C. […]

Experiment [2] is described as follows: DPPH radical scavenging activity. The settings on record: 0.1 mM DPPH in methanol, 37°C, 30 min. The procedure: This assay was conducted as previously described by Wen et al. with some modifications. DPPH was freshly prepared in methanol at a concentration of 0.1 mM. The solution (20 μL) containing the tested compounds with different concentrations was added into the DPPH solution (180 μL) in the 96-well plates. […] The IC50 value was calculated on the scavenging activity against DPPH radical.
On the technique in general: DPPH is a stable violet radical that fades when it is reduced.

Regarding `COc1ccc(CCC(=O)c2c(O)cc(O[C@@H]3O[C@H](CO)[C@@H](O)[C@H](O)[C@H]3O[C@@H]3O[C@@H](C)[C@H](O)[C@@H](O)[C@H]3O)cc2O)cc1O` [compound 47, Neohesperidin dihydrochalcone], the ORAC values in experiment [1] is on record as 4.31 ± 0.01 μmol TE/μmol. This compound also displayed an EC50 with HepG2 cells (Homo sapiens) of over 200 µM. Also, the IC50 in experiment [2] is over 200 µM.

Regarding `O=C(CCc1ccc(O)cc1)c1c(O)cc(O)cc1O[C@@H]1O[C@H](CO)[C@@H](O)[C@H](O)[C@H]1O` [compound 49, Phlorizin], in experiment [1], the ORAC values was determined as 6.43 ± 0.14 μmol TE/μmol. Moreover, the 50% effective concentration (EC50) in the experiment with HepG2 cells (Homo sapiens) was over 200 µM. In experiment [2], this compound yielded an IC50 of over 200 µM.

On to `Oc1cc(O)c2cc(O)c(-c3ccc(O)c(O)c3)[o+]c2c1` [compound 51, Cyanidin chloride], for which the ORAC values in experiment [1] was 5.71 ± 0.03 μmol TE/μmol. Also, the EC50 in the experiment on HepG2 cells (Homo sapiens) was 19.16 ± 0.16 µM. The midpoint of inhibition in experiment [2], the IC50, lay at 70.8 ± 2.31 µM.

For `Oc1cc(O)c2cc(O)c(-c3cc(O)c(O)c(O)c3)[o+]c2c1` [compound 52, Delphinidin chloride], the ORAC values in experiment [1] is listed as 5.02 ± 0.02 μmol TE/μmol. Moreover, the EC50 in the experiment with HepG2 cells (Homo sapiens) amounted to 24.91 ± 0.12 µM. This compound returned an IC50 in experiment [2] of 36.8 ± 4.26 µM.

`OC[C@H]1O[C@@H](Oc2cc3c(O)cc(O)cc3[o+]c2-c2ccc(O)c(O)c2)[C@H](O)[C@@H](O)[C@@H]1O.[Cl-]` [compound 54, Cyanidin-3-O-glucoside chloride]: the ORAC values in experiment [1] is recorded as 4.63 ± 0.14 μmol TE/μmol. In addition, in the experiment with HepG2 cells, the EC50 is 43.8 µM. For the same compound, the IC50 in experiment [2] is over 200 µM.

For `COc1cc(-c2[o+]c3cc(O)cc(O)c3cc2O[C@@H]2O[C@H](CO)[C@@H](O)[C@H](O)[C@H]2O)cc(OC)c1O.[Cl-]` [compound 56, Oenin chloride], the ORAC values in experiment [1] amounted to 4.78 ± 0.15 μmol TE/μmol. This compound displayed an EC50 in the experiment on HepG2 cells of over 200 µM. Besides, the IC50 in experiment [2] was over 200 µM.

Take `COc1cc(-c2[o+]c3cc(O)cc(OC4OC(CO)C(O)C(O)C4O)c3cc2OC2OC(CO)C(O)C(O)C2O)cc(OC)c1O` (stereo not drawn) [compound 57, Malvin]: the ORAC values in experiment [1] came to 4.32 ± 0.19 μmol TE/μmol. This compound also had an EC50 in the experiment on HepG2 cells (Homo sapiens) of over 200 µM. The compound further yielded an IC50 in experiment [2] of over 200 µM.

Regarding `Oc1cc(O)c2c(c1)O[C@H](c1ccc(O)c(O)c1)[C@H](O)C2` [compound 58, Epicatechin], the ORAC values in experiment [1] worked out at 4.83 ± 0.13 μmol TE/μmol. For the same compound, the concentration for a half-maximal effect (EC50) in the experiment with HepG2 cells (Homo sapiens) was over 200 µM. The compound also returned an IC50 in experiment [2] of 96.03 ± 0.13 µM.

Regarding `Oc1cc(O)c2c(c1)OC(c1ccc(O)c(O)c1)C(O)C2` (stereo not drawn) [compound 59, Catechin], the ORAC values in experiment [1] stood at 4.93 ± 0.02 μmol TE/μmol. The EC50 with HepG2 cells (Homo sapiens) was over 200 µM. The compound also gave an IC50 in experiment [2] of 130 ± 5.55 µM.

On to `O=C(O[C@@H]1Cc2c(O)cc(O)cc2O[C@@H]1c1cc(O)c(O)c(O)c1)c1cc(O)c(O)c(O)c1` [compound 60, Epigallocatechin gallate], for which, in experiment [1], the ORAC values came out at 6.02 ± 0.14 μmol TE/μmol. In the experiment on HepG2 cells (Homo sapiens), the EC50 stood at 25.91 ± 0.25 µM. This compound also yielded an IC50 in experiment [2] of 19.1 ± 0.62 µM.
